This passage reports IC50 results from patent publication US9809623B2, “α4β7 peptide monomer and dimer antagonists” (Protagonist Therapeutics, Inc., priority 2014, dated 2017).

The structures appear in SMILES notation. Read-outs that look alike come from different tables or passages of the source. Numbered stars: 1 amine (or outer) side, 2 acyl side, 3 side chain; on linkers, the order of the positions; unused ones are H or OH. Bridge positions count the residues as written; N and C are the ends. Square brackets hold non-standard residues; d marks the D form. Peptide text beside a SMILES is read from it. I, II: the chains in the order shown. ξ: configuration not given here. Phe(4-tBu) = CC(C)(C)c1ccc(C[C@H](N)C(=O)O)cc1; 1Nal = N[C@@H](Cc1cccc2ccccc12)C(=O)O; Diglycolyl = O=C(COCC(=O)[*:2])[*:1]; NMeR = CN[C@@H](CCCNC(=N)N)C(=O)O; β3hE = N[C@@H](CCC(=O)O)CC(=O)O; Thr(3ξ) = CC(O)[C@H](N)C(=O)O; Pen = CC(C)(S)[C@H](N)C(=O)O; dNMeK = CN[C@H](CCCCN)C(=O)O

This assay has as its target T1, rh integrin α4β7 (Homo sapiens, UniProt P13612+P26010).
T1 construct: purchased R&D Systems 5397-A30
As to the kind of experiment: α4β7-MAdCAM Competition ELISA. The assay is classed as binding. In outline: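 Recombinant human α4β7 was captured on nickel plates at 800 ng/well. Peptide in 3-fold serial dilution (final top 10 μM) competed with MAdCAM-1 (final 10 nM) for 1 h at room temperature in 50 mM Tris pH 7.6, 150 mM NaCl, 1 mM MnCl2 or MgCl2. Bound MAdCAM-1 was detected with anti-human IgG1-HRP/TMB at A450.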

Where [1] appears, read: Table 3-B, Potency (α4β7), range classes, read-out: α4β7 ELISA IC50.

T1 sequence (P13612 34-977 limits assumed): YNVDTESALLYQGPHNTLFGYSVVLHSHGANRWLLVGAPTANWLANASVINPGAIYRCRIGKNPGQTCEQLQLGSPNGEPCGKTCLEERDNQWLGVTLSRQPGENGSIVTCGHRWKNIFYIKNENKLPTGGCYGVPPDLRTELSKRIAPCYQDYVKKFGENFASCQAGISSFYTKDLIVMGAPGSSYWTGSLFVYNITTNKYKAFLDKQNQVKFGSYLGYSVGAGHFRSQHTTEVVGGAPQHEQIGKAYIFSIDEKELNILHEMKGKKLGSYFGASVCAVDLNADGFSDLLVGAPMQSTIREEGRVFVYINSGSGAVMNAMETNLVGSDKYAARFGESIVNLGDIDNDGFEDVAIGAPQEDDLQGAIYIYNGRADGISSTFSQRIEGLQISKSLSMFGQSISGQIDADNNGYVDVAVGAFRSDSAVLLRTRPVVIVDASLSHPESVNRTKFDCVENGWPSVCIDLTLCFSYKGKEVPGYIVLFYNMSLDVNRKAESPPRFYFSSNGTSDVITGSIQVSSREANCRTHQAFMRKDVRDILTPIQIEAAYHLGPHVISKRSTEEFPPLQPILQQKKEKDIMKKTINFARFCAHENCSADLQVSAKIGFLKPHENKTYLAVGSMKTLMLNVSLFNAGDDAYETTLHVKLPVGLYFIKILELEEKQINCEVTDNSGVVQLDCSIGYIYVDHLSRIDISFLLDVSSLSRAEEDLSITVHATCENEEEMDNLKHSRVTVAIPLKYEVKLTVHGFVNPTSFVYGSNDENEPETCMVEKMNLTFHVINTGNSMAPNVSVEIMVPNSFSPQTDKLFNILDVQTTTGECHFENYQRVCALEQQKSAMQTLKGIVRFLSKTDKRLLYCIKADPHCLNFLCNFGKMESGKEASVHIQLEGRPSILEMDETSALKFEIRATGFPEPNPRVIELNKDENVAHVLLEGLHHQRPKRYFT
T1 sequence (P26010 20-723 limits assumed): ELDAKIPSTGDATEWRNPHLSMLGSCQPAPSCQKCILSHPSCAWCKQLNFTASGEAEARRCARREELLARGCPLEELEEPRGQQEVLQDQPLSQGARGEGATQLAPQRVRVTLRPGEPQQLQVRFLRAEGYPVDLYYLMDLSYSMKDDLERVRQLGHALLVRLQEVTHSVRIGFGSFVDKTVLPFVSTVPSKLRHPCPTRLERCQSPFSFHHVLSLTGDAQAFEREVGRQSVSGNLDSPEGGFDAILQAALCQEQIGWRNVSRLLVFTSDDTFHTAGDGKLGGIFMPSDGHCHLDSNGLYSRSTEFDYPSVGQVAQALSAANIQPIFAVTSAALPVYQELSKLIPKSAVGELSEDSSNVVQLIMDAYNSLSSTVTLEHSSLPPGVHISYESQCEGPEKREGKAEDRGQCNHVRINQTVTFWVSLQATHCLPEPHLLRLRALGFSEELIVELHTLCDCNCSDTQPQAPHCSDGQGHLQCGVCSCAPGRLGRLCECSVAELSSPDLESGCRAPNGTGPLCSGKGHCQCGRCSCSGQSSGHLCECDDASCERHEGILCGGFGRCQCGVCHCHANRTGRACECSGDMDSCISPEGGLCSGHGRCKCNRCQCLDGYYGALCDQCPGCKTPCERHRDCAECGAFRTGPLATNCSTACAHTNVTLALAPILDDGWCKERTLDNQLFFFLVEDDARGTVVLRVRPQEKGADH

For orientation: IC50 means the concentration that inhibits the measured activity by half. In the case of `CC(=O)N[C@@H]1C(=O)N(C)[C@@H](CCCNC(=N)N)C(=O)N[C@@H](CO)C(=O)N[C@@H](CC(=O)O)C(=O)N[C@@H](C(C)O)C(=O)N[C@@H](CC(C)C)C(=O)N[C@H](C(=O)N[C@@H](Cc2ccc(C(C)(C)C)cc2)C(=O)N[C@@H](CCC(=O)O)CC(=O)N[C@H](CCCCNC(=O)COCC(=O)NCCCC[C@@H](NC(=O)C[C@H](CCC(=O)O)NC(=O)[C@H](Cc2ccc(C(C)(C)C)cc2)NC(=O)[C@H]2NC(=O)[C@H](CC(C)C)NC(=O)[C@H](C(C)O)NC(=O)[C@H](CC(=O)O)NC(=O)[C@H](CO)NC(=O)[C@H](CCCNC(=N)N)N(C)C(=O)[C@@H](NC(C)=O)C(C)(C)SSC2(C)C)C(N)=O)C(N)=O)C(C)(C)SSC1(C)C` (stereo partly drawn) [Peptide X, [Ac-Pen-(N-Me-Arg)-Ser-Asp-Thr-Leu-Pen-(Phe(4-tBu))-(β-homoGlu)-(D-Lys)]2-DIG] (I: Ac-[Pen][NMeR]SD[Thr(3ξ)]L[Pen][Phe(4-tBu)][β3hE][dK]-NH2 / II: Ac-[Pen][NMeR]SD[Thr(3ξ)]L[Pen][Phe(4-tBu)][β3hE][dK]-NH2; disulfide I:1-I:7, II:1-II:7; linker I:10-II:10 via Diglycolyl), the IC50 (1 mM Mg^2+ binding conditions, read-out: IC50 for α4β7, competition ELISA) is 3 nM. `CC(=O)N[C@@H]1C(=O)N(C)[C@@H](CCCNC(=N)N)C(=O)N[C@@H](CO)C(=O)N[C@@H](CC(=O)O)C(=O)N[C@@H]([C@@H](C)O)C(=O)N[C@@H](CC(C)C)C(=O)N[C@H](C(=O)N[C@@H](Cc2cccc3ccccc23)C(=O)N[C@@H](CCC(=O)O)C(=O)N(C)[C@H](CCCCNC(=O)COCC(=O)NCCCC[C@H](C(N)=O)N(C)C(=O)[C@H](CCC(=O)O)NC(=O)[C@H](Cc2cccc3ccccc23)NC(=O)[C@H]2NC(=O)[C@H](CC(C)C)NC(=O)[C@H]([C@@H](C)O)NC(=O)[C@H](CC(=O)O)NC(=O)[C@H](CO)NC(=O)[C@H](CCCNC(=N)N)N(C)C(=O)[C@@H](NC(C)=O)C(C)(C)SSC2(C)C)C(N)=O)C(C)(C)SSC1(C)C` [compound 44] (I: Ac-[Pen][NMeR]SDTL[Pen][1Nal]E[dNMeK]-NH2 / II: Ac-[Pen][NMeR]SDTL[Pen][1Nal]E[dNMeK]-NH2; disulfide I:1-I:7, II:1-II:7; linker I:10-II:10 via Diglycolyl): the IC50 under setting [1] was under 10 nM. On to `CC(=O)N[C@@H]1C(=O)N(C)[C@@H](CCCNC(=N)N)C(=O)N[C@@H](CO)C(=O)N[C@@H](CC(=O)O)C(=O)N[C@@H]([C@@H](C)O)C(=O)N[C@@H](CC(C)C)C(=O)N[C@H](C(=O)N[C@@H](Cc2c[nH]c3ccccc23)C(=O)N[C@@H](CCC(=O)O)C(=O)N[C@H](CCCCNC(=O)COCC(=O)NCCCC[C@@H](NC(=O)[C@H](CCC(=O)O)NC(=O)[C@H](Cc2c[nH]c3ccccc23)NC(=O)[C@H]2NC(=O)[C@H](CC(C)C)NC(=O)[C@H]([C@@H](C)O)NC(=O)[C@H](CC(=O)O)NC(=O)[C@H](CO)NC(=O)[C@H](CCCNC(=N)N)N(C)C(=O)[C@@H](NC(C)=O)C(C)(C)SSC2(C)C)C(N)=O)C(N)=O)C(C)(C)SSC1(C)C` [compound 67] (I: Ac-[Pen][NMeR]SDTL[Pen]WE[dK]-NH2 / II: Ac-[Pen][NMeR]SDTL[Pen]WE[dK]-NH2; disulfide I:1-I:7, II:1-II:7; linker I:10-II:10 via Diglycolyl), for which the IC50 under setting [1] is under 10 nM. Still for that read-out and setting: the result for `CC(=O)N[C@@H]1C(=O)N(C)[C@@H](CCCNC(=N)N)C(=O)N[C@@H](CO)C(=O)N[C@@H](CC(=O)O)C(=O)N[C@@H]([C@@H](C)O)C(=O)N[C@@H](CC(C)C)C(=O)N[C@H](C(=O)N[C@@H](Cc2c[nH]c3ccccc23)C(=O)N[C@H](CCC(=O)O)C(=O)N[C@H](CCCCNC(=O)COCC(=O)NCCCC[C@@H](NC(=O)[C@@H](CCC(=O)O)NC(=O)[C@H](Cc2c[nH]c3ccccc23)NC(=O)[C@H]2NC(=O)[C@H](CC(C)C)NC(=O)[C@H]([C@@H](C)O)NC(=O)[C@H](CC(=O)O)NC(=O)[C@H](CO)NC(=O)[C@H](CCCNC(=N)N)N(C)C(=O)[C@@H](NC(C)=O)C(C)(C)SSC2(C)C)C(N)=O)C(N)=O)C(C)(C)SSC1(C)C` [compound 68] (I: Ac-[Pen][NMeR]SDTL[Pen]W[dE][dK]-NH2 / II: Ac-[Pen][NMeR]SDTL[Pen]W[dE][dK]-NH2; disulfide I:1-I:7, II:1-II:7; linker I:10-II:10 via Diglycolyl) reads under 10 nM.
